# Where two headings read alike, the source gives them in different places.
# Experiments:
# Type in all cases: cell-based
# [1] = test system: human cervix carcinoma cell line KB/HeLa; test: XTT proliferation assay, KB/HeLa; settings: KB/HeLa cells, 45 hours incubation
# From the text: (§1) The substance of Example 2 was investigated in a proliferation test on established tumor cell lines for its anti-proliferative activity. The test used determines the cellular dehydrogenase activity and enables the cell vitality and, indirectly, the cell count to be determined. The cell lines used are the human cervix carcinoma cell line KB/HeLa (ATCC CCL17), the ovarian adenocarcinoma cell line SKOV-3 (ATCC HTB77), the human glioblastoma cell line SF-268 (NCI 503138) and the lung carcinoma cell line NCI-H460 (NCI 503473). Moreover, for investigating the effect of the substance specifically on the cell cycle, an RKOp27 cell system was used (M. Schmidt et al. Oncogene 19(20):2423-9, 2000). […]
# (§2) The adherent, growing tumor cell lines KB/HeLa, SKOV-3, SF-268, NCI-H460, ASPC1, A172, A431, A549, DU145, C6, MDAMB435, HT29, PC3, T47D, U118MG and U373MG were cultured under standard conditions in the gassing incubator at 37° C., 5% CO2 and 95% relative humidity. […] Subsequently, the cell plates were incubated for a further 3 hours in a gassing incubator and the optical density (OD490 nm) was determined in the photometer. The percentage inhibition, relative to the control, is determined by means of the OD490 nm and plotted semi-logarithmically in the form of a concentration vs. activity curve. […]
# [2] = test system: ovarian adenocarcinoma cell line SKOV-3; test: XTT proliferation assay, SKOV-3; settings: Homo sapiens, SK-OV-3; SKOV-3 cells, 45 hours incubation
# From the text: as §1, §2
# [3] = test system: human glioblastoma cell line SF-268; test: XTT proliferation assay, SF-268; settings: SF-268 cells, 45 hours incubation
# From the text: as §1, §2
# [4] = test system: lung carcinoma cell line NCI-H460; test: XTT proliferation assay, NCI-H460; settings: Homo sapiens; NCI-H460 cells, 45 hours incubation
# From the text: as §1, §2
# [5] = test system: RKOp27 human colon carcinoma cells; test: Cell cycle analysis by means of the RKOp27 model (XTT); settings: for EC50: Homo sapiens, RKOp27, 45 h
# From the text: The substance of Example 2 was investigated in a proliferation test on established tumor cell lines for its anti-proliferative activity. The test used determines the cellular dehydrogenase activity and enables the cell vitality and, indirectly, the cell count to be determined. The cell lines used are the human cervix carcinoma cell line KB/HeLa (ATCC CCL17), the ovarian adenocarcinoma cell line SKOV-3 (ATCC HTB77), the human glioblastoma cell line SF-268 (NCI 503138) and the lung carcinoma cell line NCI-H460 (NCI 503473). Moreover, for investigating the effect of the substance specifically on the cell cycle, an RKOp27 cell system was used (M. Schmidt et al. Oncogene 19(20):2423-9, 2000). The RKO is a human colon carcinoma line, in which the cell cycle inhibitor p27^kip1 was expressed by means of the Ecdyson Expression System and can be brought to a cell cycle arrest in G2. A substance of nonspecific activity inhibits the proliferation independently of whether the RKO cell is or is not arrested in G1 or G2. On the other hand, cell cycle specific substances, such as tubulin inhibitors, are cytotoxic only when the cells are not arrested and passed through the cell cycle. In Table 2, the cytotoxic or growth-inhibiting activity of the compound described is shown with and without expression of p27^kip1.
# as §2, with “curve. The EC50 is calculated from the concentration-activity curve by means of a regression analysis, using the Graphpad Prism program” for “curve.”
# [6] = test system: human pancreas adenocarcinoma cell line ASPC1; test: XTT proliferation assay, ASPC1; settings: ASPC1 cells, average of two independent experiments
# From the text: (§3) For further characterization, substance 2 was investigated for its anti-proliferative effect using a panel of 12 human tumor cell lines. The cell lines used were the human glioma cell lines A172 (ATCC CRL-1620), U118 (ATCC HTB-15) and U373 (ATCC HTB-17), the rat glioma cell line C6 (ATCC CCL-107), the human lung carcinoma cell line A549, the human epidermoid carcinoma A431 (ATCC CRL-2592), the human prostate cancer cell lines DU145 (ATCC HTB-81) and PC3 (ATCC CRL-1435), the human colon adenocarcinoma cell line HT 29 (ATCC HTB-38), the human pancreas adenocarcinoma cell line ASPC1 (ATCC CRL-1682) and the human breast cancer cell lines T47D (ECACC 88062428) and MCAMB435 (NCI 914182). […]
# as §2
# [7] = test system: human glioma cell line A172; test: XTT proliferation assay, A172; settings: A 172, A172 cells, average of two independent experiments
# From the text: as §3, §2
# [8] = test system: human epidermoid carcinoma A431; test: XTT proliferation assay, A431; settings: A-431, A431 cells, average of two independent experiments
# From the text: as §3, §2
# [9] = test system: human lung carcinoma cell line A549; test: XTT proliferation assay, A549; settings: A549 cells, average of two independent experiments
# From the text: as §3, §2
# [10] = test system: human prostate cancer cell line DU145; test: XTT proliferation assay, DU145; settings: DU-145, DU145 cells, average of two independent experiments
# From the text: as §3, §2
# rat glioma cell line C6 = test: XTT proliferation assay, C6; settings: C6 rat glioma cells, average of two independent experiments
# From the text: as §3, §2
# [11] = test system: human breast cancer cell line MDA MB435; test: XTT proliferation assay, MDA MB435; settings: MDA-MB-435, MDA MB435 cells, average of two independent experiments
# From the text: as §3, §2
# [12] = test system: human colon adenocarcinoma cell line HT 29; test: XTT proliferation assay, HT29; settings: HT29 cells, average of two independent experiments
# From the text: as §3, §2
# [13] = test system: human prostate cancer cell line PC3; test: XTT proliferation assay, PC3; settings: PC-3, PC3 cells, average of two independent experiments
# From the text: as §3, §2
# [14] = test system: human breast cancer cell line T47D; test: XTT proliferation assay, T47D; settings: T47D cells, average of two independent experiments
# From the text: as §3, §2
# [15] = test system: human glioma cell line U118; test: XTT proliferation assay, U118MG; settings: U-118-MG, U118MG cells, average of two independent experiments
# From the text: as §3, §2
# [16] = test system: human glioma cell line U373; test: XTT proliferation assay, U373MG; settings: U373 MG, U373MG cells, average of two independent experiments
# From the text: as §3, §2
smiles,measurement,setting,value
"COc1cc(OC)cc(N2CCN(C(=O)c3c4ccccc4cc4ccccc34)CC2)c1 [Example 2, Anthracene-9-yl-[4-(3,5-dimethoxy-phenyl)-piperazine-1-yl]-methanone]",EC50,[1],0.048 µg/mL
same,EC50,[2],0.047 µg/mL
same,EC50,[3],0.043 µg/mL
same,EC50,[4],0.054 µg/mL
same,EC50,"[5]; read-out: XTT Proliferation Assay, EC50 RKOP27",0.058 µg/mL
same,EC50,"[5]; read-out: XTT Proliferation Assay, EC50 RKOP27 ind.",> 3.16 µg/mL
same,cytotoxic activity in the induced state of p27kip1,"[5]; RKOp27 cells, p27kip1 induced",did not show any cytotoxic activity
same,EC50,[6],0.11 µg/mL
same,EC50,[7],0.046 µg/mL
same,EC50,[8],0.044 µg/mL
same,EC50,[9],0.066 µg/mL
same,EC50,[10],0.045 µg/mL
same,EC50,rat glioma cell line C6,0.17 µg/mL
same,EC50,[11],0.054 µg/mL
same,EC50,[12],0.061 µg/mL
same,EC50,[13],0.049 µg/mL
same,EC50,[14],0.022 µg/mL
same,EC50,[15],0.059 µg/mL
same,EC50,[16],0.057 µg/mL

# From patent US20040110756A1, “New anthracene derivatives and their use as pharmaceutical preparations” (priority 2002, published 2004)
